The text below walks through data of the NIST ThermoML archive (doi:10.1016/j.jct.2013.10.010).

Numbers after ± are expanded uncertainties.

Data set [1] can be described thus: φn = volume fraction of the nth substance listed. Particulars: 298.15 K, Wilhelmy Plate Method.
For data set [2] the following is noted: 298.15 K, Wilhelmy Plate Method.

The term surface tension liquid-gas denotes the force per length acting along the surface. For `OCCO` [1,2-ethanediol] + O, the surface tension liquid-gas in data set [1] (φ1 = 0.1) amounted to 68.3 ± 0.4 mN/m; in data set [1] (φ1 = 0.2) it was 64.8 ± 0.4 mN/m; in data set [1] (φ1 = 0.3) it was 61.5 ± 0.4 mN/m.
As for `C1COCCO1` [1,4-dioxane] + O, the surface tension liquid-gas was found to be 54 ± 0.4 mN/m in data set [1] (φ1 = 0.1), 52 ± 0.4 mN/m in data set [1] (φ1 = 0.2) and 46.6 ± 0.4 mN/m in data set [1] (φ1 = 0.3).
In the case of `O` [water], the surface tension liquid-gas in data set [2] came out at 71.8 ± 0.4 mN/m.
For the compound `O` [water] + C1COCCO1, the surface tension liquid-gas in data set [1] (φ2 = 0) was 71.8 ± 0.4 mN/m.
In the case of `O` [water] + OCCO, the surface tension liquid-gas in data set [1] (φ2 = 0) was 71.8 ± 0.4 mN/m.
